Reference: patent US20100119454A1, “Use of the conserved Drosophila NPFR1 system for uncovering interacting genes and pathways important in nociception and stress response” (priority 2008, published 2010)

Columns and labels:
rat TRPV1 = target: T1, rat TRPV1 (Rattus norvegicus, UniProt O35433, E600K); assay: Calcium imaging of HEK 293 cells (Fluo-4/Fura-red), capsaicin-induced Ca2+ influx; assay type: cell-based
T1 construct: expressed in transfected cells; host or cells: HEK293 cells, transient transfection with pcDNA3.1D (Invitrogen) carrying TRPV1 (E600K) cDNA
Description: Transfection and Calcium imaging of HEK 293 cells. HEK293 cells were maintained under standard conditions (37° C., 5% CO2) in Dulbecco's Modified Eagle's Medium (Mediatech) supplemented with 10% fetal bovine serum, penicillin and streptomycin. pcDNA3.1D directional expression system (Invitrogen) was used to clone and express rat TRPV1 and fly NPFR1 cDNA in HEK293 cells. TRPV1 cDNA was PCR amplified from TRPV1 (E600K) sequence (Marella et al., 2006), using the following primers: 5′ […] 3′ (SEQ ID NO: 11) and 5′ […] 3′ (SEQ ID NO: 12). NPFR1 cDNA was PCR amplified from an NPFR1 cDNA plasmid(34), using two primers: 5′ […] 3′ (SEQ ID NO: 13) and 5′ […] 3′ (SEQ ID NO: 14). HEK293 cells were cultured on 8-well polyornithine-coated chambered coverglasses (Nunc) for 24 hrs before transfection. A suspension of 200 μl of water containing 0.4 μg plasmid DNA and 0.8 μl of Lipofectamine 2000 (Invitrogen) was used for transfection. The amounts of TRPV1 and NPFR1 cNDA used were 20 ng and 200 ng, respectively. pcDNA3.1 vector DNA was supplemented, when necessary, to ensure the equal amount of total DNA per transfection.
Calcium imaging was performed between 36-42 hours post transfection at 23° C. Cells were loaded with 1 μM Fluo-4 and 2 μM Fura-red (Invitrogen) for 90 min in Hanks' balanced salt solution (HBSS; Gibco), washed once with HBSS, and imaged using a Zeiss Axiovert 200M scope equipped with a Zeiss LSM 510 Meta laser scanning module. Dyes were excited at 488 nm with argon laser. Emission fluorescence was filtered by a BP505-530 and an LP585 filter. Images were collected for 300 s upon capsaicin stimulation at 1 frame s^−1, and analyzed with the SOARS analysis. NPF was synthesized by Quality Controlled Biochemicals. NPF and cyclic nucleotide analogs (Sigma) were pre-incubated at 23° C. with cells for 20-25 min before adding capsaicin.

[1] = target: T2, VR1E600K, a variant of vanilloid receptor TRPV1 (Rattus norvegicus, UniProt O35433, E600K); assay: Capsaicin avoidance (migration) of larvae expressing mammalian TRPV1 in PAIN neurons; assay type: in vivo, Drosophila melanogaster
T2 construct: expressed in transfected cells; host or cells: Drosophila melanogaster larvae, PAIN neurons (pain-gal4 x UAS-VR1E600K / UAS-TRPV1 transgenic line, Marella et al. 2006)
Description: To provide further evidence that larval wandering behavior represents an aversive response to fructose, pain-gal4 was used to express a mammalian TRP channel protein VR1E600K, a variant of vanilloid receptor TRPV1 responsive to a spicy substance capsaicin from chili peppers (see the following references, which are incorporated herein by reference in their entireties: Caterina, M. J., et al., 1997; Marella, S., et al., 2006; Tobin, D. M., et al., 2002).
Behavioral assays. The migration assay on soft agar media was performed as described previously (Xu et al., 2008), which is hereby incorporated by reference herein in its entirety. […] The percentage of pupae on agar media was scored after 24 hours. […]

[2] = target: T2, VR1E600K, a variant of vanilloid receptor TRPV1; assay: Two-choice medium preference assay (capsaicin vs capsaicin-free media); assay type: in vivo
Description: The two-choice medium preference assay was performed on a 2.5% agar plate. The apple juice or water agar paste is the same as described above. 10 μl of 5 mM capsaicin stock solution (in 100% ethanol) or 10 μl ethanol was added to each ml of the agar media. 30 larvae were washed extensively to remove any food particles. They were then placed between the two piles of capsaicin and capsaicin-free media (1 cm in diameter), which are located 4 mm apart. The number of larvae in each medium was recorded after 20 min. A preference index was defined as the fraction of larvae choosing the capsaicin-free medium, minus the fraction of larvae choosing the capsaicin medium.

[3] = test system: D. melanogaster post-feeding larvae; assay: Larval food aversion (migration) assay on soft agar media; assay type: in vivo, Drosophila melanogaster; settings: for response of wild type larvae to sugar media: 10% sugar media, wild type larvae (FIG. 2B); for triggering larval wandering: 10% in soft agar paste, post-feeding larvae
Description: Behavioral Assays. The food aversion assay was performed in plastic petri dishes (60 mm in diameter). Each apple juice-agar plate contains a mix (ca. 7 ml) of 1 g of Drosophila agar powder (USB, Swampscott, Mass.) and 6 ml apple-juice solution (0.1 g carbohydrates per ml, equivalent to 20% of frozen concentrate). Other soft agar media were made by mixing 1 g agar powder with 6.5 ml of distilled water or solution containing 10% fructose, 10% lactose, 10% sorbitol or 50 μM capsaicin, respectively. The amount of agar powder may require adjustment depending on agar quality. Twenty-five new post-feeding larvae (96 h AEL) were transferred onto a plate. The larvae were allowed to move freely on the medium, and those that crawled onto the plastic surface became less mobile and eventually formed pupae there. The percent of pupae on agar media was scored after 24 hours. All experiments were performed at room temperature except for the temperature shift assay. In these experiments, larvae and food media were pre-incubated at 30° C. for 60 min before the assay. The larvae were subsequently transferred onto the medium and kept at 30° C. All assays were performed in the dark. At least three separate trials were performed per assay.
(§1) Behavioral assays. The migration assay on soft agar media was performed as described previously (Xu et al., 2008), which is hereby incorporated by reference herein in its entirety. Twenty-five postfeeding larvae (96 h AEL) in one plate were allowed to move freely on the medium, and those that crawled onto the plastic surface became less mobile, and eventually formed pupae there. The percentage of pupae on agar media was scored after 24 hours. The clumping assay was also described in the following, which is hereby incorporated by reference herein in its entirety (Wu et al., 2003). Briefly, 45 mm petri dishes containing solid fructose agar (3% agar in a 10% fructose solution) were coated with a thin layer of yeast paste (0.5 g yeast powder in 10% fructose solution). Thirty larvae per plate were allowed to browse for 30 min, and those in clumps were scored immediately. The social burrowing assay was performed on solid agar media containing apple juice or 10% fructose, as described (Wu et al., 2003). All assays, unless stated otherwise, were performed at room temperature in the dark. At least three separate trials were performed per assay.

[4] = test system: pain-expressing sensory neurons; assay: Calcium imaging (yellow cameleon 2.1, SOARS analysis) of larval sensory neurons; assay type: cell-based, Drosophila melanogaster
Description: Imaging. The live images of second instar larvae (ca. 48 h AEL) expressing DsRed driven by pain-gal4 were obtained using a Leica epifluorescence microscope. The immunofluorescence images were taken by a Zeiss LSM 510 Meta confocal microscope and processed by Zeiss AIM Image Examiner. […] Larvae were dissected in a modified HL6 solution containing lactose (HL6-Lac, 23.7 mM NaCl, 15 mM MgCl2, 24.8 mM KCl, 0.5 mM CaCl2, 10 mM NaHCO3, 5 mM HEPES, 240 mM lactose)^38. An incision was made along the dorsal midline, and the gut and the fat bodies were removed. The tissue was placed ventral side up in HL6 solution on a silicon-coated coverslip (Sylgard 184, DOW Corning Corp., Midland, Mich.) in a Dvorak-Stotler perfusion chamber (Lucas Highland, Chantilly, Va.). A minute amount of cyanoacrylate glue (Nexaband S/C, Abott Laboratories, North Chicago, Ill.) was applied to the edge of the cuticle using a glass micropipette to immobilize the tissue. The imaging was performed on a Zeiss LSM 510 Meta confocal microscope (Carl Zeiss Microimaging, Thornwood, N.Y.). YC2.1 was excited at 458 nm with an argon laser. Emission fluorescence was filtered by a BP 475-525 filter (cyan) and an LP 530 filter (yellow). 256×256 pixel images for ratiometric analysis were collected at 1 frame s^−1. The tissue was perfused at a rate of 8.3 ul s^−1 with HL6-Lac, periodically alternating with a modified HL6 solution containing fructose (HL6-Fru, with 240 mM fructose substituting 240 mM lactose in HL6-Lac), switching at 120-second intervals for a total of 800 seconds. The images were subsequently analyzed with the SOARS method (Statistical Optimization for the Analysis of Ratiometric Signals, Version 1.1) as described in the following references, which are hereby incorporated by reference herein in their entireties (Fan, X., et al., 2007; Broder, J., et al., 2007), using Matlab (MathWorks, Natick, Mass.; also see http://www.engr.uga.edu/research/groups/atslab/Software.html).
In brief, SOARS is a multivariate statistical optimization procedure performed on both CFP and YFP channels of the FRET imaging data. The analysis results in a set of eigenimages and associated time courses that represent the part of the imaged signal displaying statistically significant spatial correlation and temporal anti-correlation (e.g., the aspects of the signal that are demonstrable due to FRET). These eigenimages represent the spatial distribution of anti-correlated FRET changes in response to sugar stimulation. Because the stimulus was periodic, the time courses were tested for the presence of stimulus-locked activity. To quantify the significance of the periodic part of the FRET response, p-values for a periodic (sinusoidal) response at the stimulus frequency were calculated using multitaper harmonic analysis (a common method for the detection of sinusoids in noisy data) as described in the following references, which are hereby incorporated herein by reference in their entirety. (Thomson 1982; Mitra et al., 1999, Sornborger et al., 2003; Mitra et al., 2008).
In vivo calcium imaging. […] To quantify the significance of anti-correlated FRET response to fructose stimulation, p-values were calculated for a periodic (sinusoidal) response at the stimulus frequency using multitaper harmonic analysis, a common method for the detection of sinusoids in noisy data (Thomson, 1982), which is hereby incorporated by reference herein in its entirety.

[5] = test system: D. melanogaster post-feeding larvae; assay: Larval aggregation / cooperative burrowing on solid agar media; assay type: in vivo, Drosophila melanogaster; settings: solid 10% fructose agar, post-feeding larvae 96 hr AEL
Description: as §1

rats = settings: injected into the forebrain of rats, paw-withdraw test; cited from earlier work
[6] = HEK 293 cells, cyclic nucleotide analog pre-incubated 20-25 min before capsaicin

T1 sequence (O35433 whole entry E600K): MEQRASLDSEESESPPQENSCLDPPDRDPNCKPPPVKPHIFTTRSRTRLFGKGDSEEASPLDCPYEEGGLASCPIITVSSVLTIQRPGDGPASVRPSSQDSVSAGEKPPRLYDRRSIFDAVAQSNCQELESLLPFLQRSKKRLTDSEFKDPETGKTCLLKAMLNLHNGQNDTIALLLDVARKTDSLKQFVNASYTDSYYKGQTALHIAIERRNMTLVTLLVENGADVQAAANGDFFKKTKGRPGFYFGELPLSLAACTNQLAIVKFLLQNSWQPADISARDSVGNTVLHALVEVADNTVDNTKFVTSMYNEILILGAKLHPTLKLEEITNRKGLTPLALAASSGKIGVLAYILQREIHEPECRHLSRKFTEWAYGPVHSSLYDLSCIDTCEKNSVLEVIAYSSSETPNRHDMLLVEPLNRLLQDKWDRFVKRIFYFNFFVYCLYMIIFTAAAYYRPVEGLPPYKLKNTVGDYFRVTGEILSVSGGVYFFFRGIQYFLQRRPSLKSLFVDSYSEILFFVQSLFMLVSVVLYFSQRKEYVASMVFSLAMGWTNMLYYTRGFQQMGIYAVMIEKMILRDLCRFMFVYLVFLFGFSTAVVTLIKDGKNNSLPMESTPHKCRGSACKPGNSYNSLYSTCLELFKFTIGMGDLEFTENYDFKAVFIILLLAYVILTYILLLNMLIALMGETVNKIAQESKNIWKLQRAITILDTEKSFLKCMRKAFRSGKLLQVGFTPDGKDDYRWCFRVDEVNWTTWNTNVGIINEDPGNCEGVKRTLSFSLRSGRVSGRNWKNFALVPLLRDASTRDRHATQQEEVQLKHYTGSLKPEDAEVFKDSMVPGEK
T2 sequence (O35433 whole entry E600K, the tested form may be a part): as the sequence (O35433 whole entry E600K) above

Nc1ncnc2c1nc(Br)n2[C@@H]1O[C@@H]2COP(=O)(O)O[C@H]2[C@H]1O [8-Br-cAMP]
effect on TRPV1-mediated Ca2+ influx (rat TRPV1; [6]): significantly increased

Nc1nc2c(nc(Br)n2[C@@H]2O[C@@H]3COP(=O)(O)O[C@H]3[C@H]2O)c(=O)[nH]1 [8-Br-cGMP]
effect on NPFR1 suppression of TRPV1 (rat TRPV1; HEK 293 cells expressing NPFR1 and TRPV1, in the presence of 8-Br-cGMP): significantly enhanced
effect on TRPV1 activity (rat TRPV1; [6]): slightly reduced

COc1cc(CNC(=O)CCCC/C=C/C(C)C)ccc1O [capsaicin]
migratory response to capsaicin agar paste ([1]; 400 nM capsaicin, larvae expressing UAS-TRPV1 driven by pain-gal4): migrate away
response to capsaicin-agar medium, control larvae ([1]; 25 μM capsaicin, control larvae (e.g., VR1E600K alone, no driver)): no aversive response
migratory response to capsaicin-agar medium ([1]; 25 μM capsaicin, post-feeding larvae expressing VR1E600K driven by pain-gal4): migrated away
time to significant Ca2+ influx in response to capsaicin (rat TRPV1; HEK293 cells transfected with TRPV1 cDNA alone, 400 nM capsaicin): ≤ 30 s
medium preference in two-choice assay, post-feeding larvae ([2]; post-feeding VR1E600K-expressing larvae): preference for capsaicin-free media
medium preference in two-choice assay, feeding larvae ([2]; younger feeding VR1E600K-expressing larvae (74 h AEL)): no such preference
response of wild type larvae to capsaicin ([3]; wild type Drosophila larvae (no TRPV1)): neither attractive nor aversive response

O=C(CO)[C@@H](O)[C@H](O)[C@H](O)CO [fructose]
Anti-correlated signal ([4]; pain^gal4/+, UAS-YC 2.1/+, 74 h AEL, lactose-fructose alternate, ventral sensory neurons in T2 and T3 segments): No
Anti-correlated signal ([4]; pain^gal4/+, UAS-YC 2.1/+, 96 h AEL, lactose-fructose alternate, chordotonal neurons in A1 segment): No
Anti-correlated signal ([4]; pain^gal4/+, UAS-YC 2.1/+, 96 h AEL, lactose-fructose alternate, ventral sensory neurons in T2 and T3 segments): Yes
Anti-correlated signal ([4]; pain^gal4/pain^3, UAS-YC 2.1/+ (pain mutant), 96 h AEL, lactose-fructose alternate, ventral sensory neurons in T2 and T3): No
larval grouping behavior on solid medium [5]: aggregation and cooperative burrowing
response of wild type larvae to sugar media [3]: aversive
larvae that moved away from the medium / pupated outside of the medium ([3]; w1118 new post-feeding larvae (ca. 96 h AEL), soft agar paste, apple juice or 10% fructose): about 80%

OC[C@H]1O[C@@H](O[C@H]2[C@H](O)[C@@H](O)C(O)O[C@@H]2CO)[C@H](O)[C@@H](O)[C@H]1O (stereo partly drawn) [lactose]
Anti-correlated signal ([4]; pain^gal4/+, UAS-YC 2.1/+, 96 h AEL, lactose-lactose alternate, ventral sensory neurons in T2 and T3): No
triggering larval wandering [3]: not effective

OC[C@@H](O)[C@@H](O)[C@H](O)[C@@H](O)CO [sorbitol]
triggering larval wandering [3]: not effective

OC[C@H]1O[C@@](CO)(O[C@H]2O[C@H](CO)[C@@H](O)[C@H](O)[C@H]2O)[C@@H](O)[C@@H]1O [sucrose]
response of wild type larvae to sugar media [3]: aversive

NPY: abundant signaling peptide in the brain of mammals
nociceptive threshold (rats): significantly elevated

B1: NPF: Drosophila neuropeptide F, sole fly homolog of human NPY; synthesized by Quality Controlled Biochemicals (SEQ ID NO: 5) (peptide)
chain: MCQTMRCILVACVALALLAAGCRVEASNSRPPRKNDVNTMADAYKFLQDLDTYYGDRARVRFGKRGSLMDILRNHEMDNINLGKNANNGGEFARGFNEEEIF
modifications: Drosophila melanogaster
effect of NPF on response to capsaicin (rat TRPV1; HEK293 cells co-transfected with NPFR1 and TRPV1 cDNAs, in the presence of NPF (1 mM per FIG. 15 legend), 400 nM capsaicin): drastically attenuated and delayed responses
effect of NPF on TRPV1 activity (rat TRPV1; HEK293 cells transfected with TRPV1 cDNA alone): mild reduction
